In ChEMBL document CHEMBL1201862, “PubChem BioAssay data set” (2004):
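In this assay, cells in 96-well plates receive the compound at five concentrations for 48 hours. Endpoints are linearly interpolated between the surrounding concentrations. Here, GI50 denotes the concentration required for 50% inhibition of growth.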 Active and inactive are the calls of the source. No stated cut-off is given here; in the data, active = GI50 up to about 1.1 µM and inactive = higher. Where a SMILES comes first, the peptide text is derived from it. The star is where a group is joined. Cbz = O=C(OCc1ccccc1)*; Boc = CC(C)(C)OC(=O)*; tBu = CC(C)(C)*

Legend:
Experiment in all cases: inhibition of tumour cell growth, NCI panel, 48 h
ACHN = test system: ACHN
HL-60 = test system: HL-60
HOP-62 = test system: HOP-62
HT-29 = test system: HT-29
K562 = test system: K562
MDA-MB-231 = test system: MDA-MB-231
MDA-MB-435 = test system: MDA-MB-435
MOLT-4 = test system: MOLT-4
NCI-H522 = test system: NCI-H522
NCI/ADR-RES = test system: NCI/ADR-RES
RXF 393 = test system: RXF 393
SF-295 = test system: SF-295
SF-539 = test system: SF-539
SK-OV-3 = test system: SK-OV-3
SR = test system: SR
TK-10 = test system: TK-10
BT-549 = test system: BT-549
COLO 205 = test system: COLO 205
UACC-257 = test system: UACC-257
OVCAR-8 = test system: OVCAR-8

Structure (SMILES)	GI50 (ACHN)	GI50 (HL-60)	GI50 (HOP-62)	GI50 (HT-29)	GI50 (K562)	GI50 (MDA-MB-231)	GI50 (MDA-MB-435)	GI50 (MOLT-4)	GI50 (NCI-H522)	GI50 (NCI/ADR-RES)	GI50 (RXF 393)	GI50 (SF-295)	GI50 (SF-539)	GI50 (SK-OV-3)	GI50 (SR)	GI50 (TK-10)	GI50 (BT-549)	GI50 (COLO 205)	GI50 (UACC-257)	GI50 (OVCAR-8)
NC(N)=NCc1ccc2c(c1)OCO2	65.5 µM (inactive)	60.3 µM (inactive)	> 100 µM (inactive)	72.9 µM (inactive)	> 100 µM (inactive)	95.3 µM (inactive)	73.1 µM (inactive)	> 100 µM (inactive)	> 100 µM (inactive)	> 100 µM (inactive)	55.3 µM (inactive)	67 µM (inactive)	42.7 µM (inactive)	> 100 µM (inactive)	> 100 µM (inactive)	> 100 µM (inactive)	–	–	–	–
COc1ccc(NCn2nc(CCCCCCCCc3nn(CNc4ccc(OC)cc4)c(=S)o3)oc2=S)cc1	> 100 µM (inactive)	–	> 100 µM (inactive)	> 100 µM (inactive)	> 100 µM (inactive)	> 100 µM (inactive)	> 100 µM (inactive)	> 100 µM (inactive)	> 100 µM (inactive)	> 100 µM (inactive)	> 100 µM (inactive)	> 100 µM (inactive)	–	> 100 µM (inactive)	–	> 100 µM (inactive)	> 100 µM (inactive)	> 100 µM (inactive)	> 100 µM (inactive)	–
CC(C)=NN/C(=N\c1ccc(Cl)cc1)NS(=O)(=O)c1cc(Cl)c(Oc2ccc([N+](=O)[O-])cc2Cl)c(Cl)c1	–	> 100 µM (inactive)	> 100 µM (inactive)	> 100 µM (inactive)	53.6 µM (inactive)	60.1 µM (inactive)	79.3 µM (inactive)	25.4 µM (inactive)	91 µM (inactive)	> 100 µM (inactive)	–	86.1 µM (inactive)	–	–	–	> 100 µM (inactive)	> 100 µM (inactive)	> 100 µM (inactive)	> 100 µM (inactive)	> 100 µM (inactive)
CSc1ccccc1NC1=NCCO1	> 100 µM (inactive)	> 100 µM (inactive)	> 100 µM (inactive)	> 100 µM (inactive)	> 100 µM (inactive)	> 100 µM (inactive)	> 100 µM (inactive)	> 100 µM (inactive)	> 100 µM (inactive)	> 100 µM (inactive)	> 100 µM (inactive)	> 100 µM (inactive)	> 100 µM (inactive)	–	> 100 µM (inactive)	> 100 µM (inactive)	–	> 100 µM (inactive)	> 100 µM (inactive)	> 100 µM (inactive)
CC(OC(C)(C)C)C(NC(=O)C(CCCCNC(=O)OC(C)(C)C)NC(=O)C(Cc1c[nH]c2ccccc12)NC(=O)C(Cc1ccccc1)NC(=O)OCc1ccccc1)C(=O)NC(Cc1ccccc1)C(=O)O (centres undefined) (Cbz-FWK(Boc)T(tBu)F-OH; configuration not given here)	69.3 µM (inactive)	> 100 µM (inactive)	> 100 µM (inactive)	33.5 µM (inactive)	28.8 µM (inactive)	40.2 µM (inactive)	40.5 µM (inactive)	28.1 µM (inactive)	27.9 µM (inactive)	> 100 µM (inactive)	> 100 µM (inactive)	76.7 µM (inactive)	31.8 µM (inactive)	39.5 µM (inactive)	44.4 µM (inactive)	> 100 µM (inactive)	–	36.9 µM (inactive)	> 100 µM (inactive)	95.1 µM (inactive)
O=[N+]([O-])/C(Cl)=C(\Nc1ccccc1)C(Cl)=C(Cl)Cl	29.2 µM (inactive)	20.9 µM (inactive)	29 µM (inactive)	30.5 µM (inactive)	25 µM (inactive)	34.4 µM (inactive)	18.5 µM (inactive)	33.3 µM (inactive)	42.7 µM (inactive)	16 µM (inactive)	37.3 µM (inactive)	33 µM (inactive)	27.9 µM (inactive)	43.7 µM (inactive)	27.4 µM (inactive)	56.6 µM (inactive)	–	19.5 µM (inactive)	49.8 µM (inactive)	23.5 µM (inactive)
C=CCOCn1cc(C)c(=O)[nH]c1=O	> 100 µM (inactive)	> 100 µM (inactive)	> 100 µM (inactive)	> 100 µM (inactive)	> 100 µM (inactive)	> 100 µM (inactive)	> 100 µM (inactive)	> 100 µM (inactive)	29.6 µM (inactive)	–	–	> 100 µM (inactive)	> 100 µM (inactive)	> 100 µM (inactive)	> 100 µM (inactive)	> 100 µM (inactive)	> 100 µM (inactive)	> 100 µM (inactive)	> 100 µM (inactive)	> 100 µM (inactive)
CCOC(=O)C1=C(OS(=O)(=O)C(F)(F)F)CCCC1	> 100 µM (inactive)	> 100 µM (inactive)	> 100 µM (inactive)	> 100 µM (inactive)	> 100 µM (inactive)	> 100 µM (inactive)	> 100 µM (inactive)	> 100 µM (inactive)	> 100 µM (inactive)	> 100 µM (inactive)	> 100 µM (inactive)	> 100 µM (inactive)	> 100 µM (inactive)	> 100 µM (inactive)	> 100 µM (inactive)	> 100 µM (inactive)	–	> 100 µM (inactive)	> 100 µM (inactive)	> 100 µM (inactive)
O=C1OC(c2ccccc2)N(C(=O)c2ccccc2)C1Cc1ccc(OCc2ccccc2)cc1 (centres undefined)	6.82 µM (inactive)	9.89 µM (inactive)	9.42 µM (inactive)	–	> 100 µM (inactive)	2.6 µM (inactive)	> 100 µM (inactive)	–	–	19.9 µM (inactive)	–	–	> 100 µM (inactive)	> 100 µM (inactive)	> 100 µM (inactive)	43.9 µM (inactive)	–	> 100 µM (inactive)	–	94.8 µM (inactive)
CCCCCC[C@H]1CC(=O)C2CCCC[C@@]23CC[C@H](CCl)N13.CCCCCC[C@H]1CC(=O)C2CCCC[C@@]23C[C@H](Cl)CN13 (some centres undefined)	53.5 µM (inactive)	21.8 µM (inactive)	91.6 µM (inactive)	61.9 µM (inactive)	28.6 µM (inactive)	84.5 µM (inactive)	57.8 µM (inactive)	10 µM (inactive)	17.9 µM (inactive)	–	–	51.2 µM (inactive)	69.5 µM (inactive)	> 100 µM (inactive)	–	43.9 µM (inactive)	–	10 µM (inactive)	43 µM (inactive)	25.4 µM (inactive)
N#Cc1nnc2c3c(-c4ccc(Cl)cc4)c(C#N)c(O)nc3nn2c1N	8.11 µM (inactive)	–	4.79 µM (inactive)	5 µM (inactive)	7.33 µM (inactive)	13.4 µM (inactive)	8.69 µM (inactive)	2.62 µM (inactive)	1.62 µM (inactive)	18.4 µM (inactive)	3.98 µM (inactive)	5.3 µM (inactive)	2.88 µM (inactive)	4.61 µM (inactive)	2.14 µM (inactive)	22.6 µM (inactive)	–	11.7 µM (inactive)	15.4 µM (inactive)	4.92 µM (inactive)
O[C@@]1(C#Cc2ccc3c(c2)OCO3)CCC[C@H]1NCc1ccccc1	37.2 µM (inactive)	18.4 µM (inactive)	26.5 µM (inactive)	22.9 µM (inactive)	18.7 µM (inactive)	24.9 µM (inactive)	21 µM (inactive)	15.9 µM (inactive)	15.3 µM (inactive)	16.7 µM (inactive)	24.3 µM (inactive)	19.8 µM (inactive)	16 µM (inactive)	35.7 µM (inactive)	23.2 µM (inactive)	27.7 µM (inactive)	–	18.3 µM (inactive)	24.2 µM (inactive)	22.8 µM (inactive)
COc1ccc(/C(C)=N/NC(=O)c2ccncc2)cc1OC	–	> 10 µM (inactive)	> 10 µM (inactive)	–	> 10 µM (inactive)	> 10 µM (inactive)	–	> 10 µM (inactive)	–	> 10 µM (inactive)	–	–	> 10 µM (inactive)	> 10 µM (inactive)	> 10 µM (inactive)	–	> 10 µM (inactive)	> 10 µM (inactive)	> 10 µM (inactive)	–
CCOP(=O)(CC(=O)C1CC1)OCC	> 100 µM (inactive)	> 100 µM (inactive)	> 100 µM (inactive)	> 100 µM (inactive)	> 100 µM (inactive)	> 100 µM (inactive)	–	> 100 µM (inactive)	> 100 µM (inactive)	> 100 µM (inactive)	0.01 µM (active)	> 100 µM (inactive)	> 100 µM (inactive)	> 100 µM (inactive)	> 100 µM (inactive)	> 100 µM (inactive)	> 100 µM (inactive)	> 100 µM (inactive)	> 100 µM (inactive)	> 100 µM (inactive)
Cn1ncnc1CCc1ccccc1	> 100 µM (inactive)	> 100 µM (inactive)	> 100 µM (inactive)	> 100 µM (inactive)	> 100 µM (inactive)	–	–	> 100 µM (inactive)	> 100 µM (inactive)	–	> 100 µM (inactive)	> 100 µM (inactive)	> 100 µM (inactive)	> 100 µM (inactive)	> 100 µM (inactive)	> 100 µM (inactive)	–	> 100 µM (inactive)	> 100 µM (inactive)	> 100 µM (inactive)
COC(=O)C(=O)C(C(=O)C=C(C)C)C(=O)C(=O)Nc1ccc(Cl)cc1C (centres undefined)	> 100 µM (inactive)	> 100 µM (inactive)	> 100 µM (inactive)	> 100 µM (inactive)	71.8 µM (inactive)	–	–	> 100 µM (inactive)	69.2 µM (inactive)	–	> 100 µM (inactive)	> 100 µM (inactive)	> 100 µM (inactive)	> 100 µM (inactive)	23.3 µM (inactive)	> 100 µM (inactive)	–	> 100 µM (inactive)	> 100 µM (inactive)	> 100 µM (inactive)
